These results are taken from PMC2764525 (Biochemistry, 2009).

Data set [1] deals with T1, nikD Asp276Asn (Streptomyces tendae, UniProt Q9X9P9, D276N). Put plainly: biochemical. Type of data set: binding.
The target in data set [2] is T2, nikD Glu101Gln (Streptomyces tendae, UniProt Q9X9P9, E101Q). Put plainly: biochemical. Type of data set: binding.
The target of data set [3] is wild-type nikD. As to conditions: spectral titration, 100 mM potassium phosphate buffer, pH 8.0, 25 °C; cited from earlier work.
For data set [4] the following is noted: ionization at the N(3)H position in free FAD; cited from earlier work.
Data set [5] deals with T1, nikD Asp276Asn. The data set is described as follows: Anaerobic reductive half-reaction with P2C. Type of data set: biochemical.
In data set [6] the target is T2, nikD Glu101Gln. The data set is described as follows: Anaerobic reductive half-reaction with P2C. It is filed as biochemical.
Data set [7] addresses T1, nikD Asp276Asn. Put plainly: Steady-state turnover with P2C and oxygen. Type of data set: biochemical.
Data set [8] deals with T2, nikD Glu101Gln. Put plainly: Steady-state turnover with P2C and oxygen. Type of data set: biochemical.
For data set [9], the system named is wild-type nikD. As to conditions: pH 8.0, 25 °C, cited from earlier work.
Data set [10] has as its system wild-type nikD. As to conditions: saturating P2C and oxygen, pH 8.0, 25 °C; cited from earlier work.
Data set [11] deals with T2, nikD Glu101Gln. As to conditions: pH 8.
Data set [12] concerns wild-type nikD. As to conditions: cited from earlier work.
For data set [13], the target named is T2, nikD Glu101Gln. Put plainly: biochemical.
The mark [14] stands for this setting: apparent second-order rate constant from stopped-flow data, pH 8.0, 25 °C.
The mark [15] stands for this setting: limiting rate of fast phase at saturating P2C, pH 8.0, 25 °C.
The mark [16] stands for this setting: very fast phase preceding fast phase, pH 8.0, 25 °C.
The mark [17] stands for this setting: saturating concentrations of P2C and oxygen.
Where [18] appears, read: one-step binding, pH 8.0, 25 °C.

Values joined by “and” are separate entries in the source; they are usually repeats but may differ in a detail not shown here. Equal entries are not always repeated. Where two headings read alike, the source gives them in different places.

What is called pKa is the negative logarithm of the acid dissociation constant. The Ki is a dissociation constant, usually derived from enzyme kinetics or from competition with a known ligand. Low values mean higher affinity, high ones lower affinity. A word on the kcat: it is the number of substrate molecules converted per active site and unit of time at saturation.

For `O=C(O)C1=CCCCC1` [1-cyclohexenoate], the Kd in data set [1] was 6.5 ± 0.9 µM; in [2], 0.9 ± 0.1 µM; in data set [3], 12.8 ± 0.9 µM.

Regarding `Cc1cc2nc3c(=O)[nH]c(=O)nc-3n(C[C@H](O)[C@H](O)[C@H](O)COP(=O)(O)OP(=O)(O)OC[C@H]3O[C@@H](n4cnc5c(N)ncnc54)[C@H](O)[C@@H]3O)c2cc1C` [FAD, flavin adenine dinucleotide], the pKa in data set [4] was 10.4.

For the compound `O=C(O)C1=NCCCC1` [P2C, piperideine-2-carboxylate], the Kd in data set [5] is 110 ± 10 µM; in [6], 1400 ± 200 µM; in data set [9] (read-out: Kd app, hyperbolic fit of fast phase) it was 260 ± 20 µM. Moreover, the klim/Kd app in data set [5] (setting [14]) is 1.01 ± 0.01 × 10^5 M^-1 s^-1 and 1.01 ± 0.09 × 10^5 M^-1 s^-1; in data set [6] (setting [14]) it was 9 ± 1 × 10^3 M^-1 s^-1; in [9], 2.0 ± 0.2 × 10^5 M^-1 s^-1. Also, the klim is 11.1 ± 0.2 s⁻¹ in data set [5] (setting [15]), 13.9 ± 0.9 s⁻¹ in data set [6] (setting [15]) and 53 ± 1 s⁻¹ in data set [9] (limiting rate of fast phase at saturating P2C). The “klim, fold faster than observed turnover rate (kcat)” value in data set [5] (saturating P2C) is “about 10 fold”; in [6] (saturating P2C), “about 30 fold”. Besides, the “klim, fold slower than limiting rate with wild-type nikD” value was “about 5 fold” in [5] (saturating P2C) and “about 4 fold” in [6] (saturating P2C). In addition, the kslow is 3.0 ± 0.3 s⁻¹ in [5] (slow phase, independent of P2C concentration, pH 8.0, 25 °C) and 2.7 ± 0.1 s⁻¹ in data set [9] (slow phase, independent of P2C concentration). Moreover, the “kvery fast, Y-intercept of linear dependence on P2C concentration” value in data set [6] (setting [16]) is 10.1 ± 0.9 s⁻¹. Further, the “kvery fast, slope of linear dependence on P2C concentration” value in data set [6] (setting [16]) is 8.8 ± 0.2 × 10^3 M^-1 s^-1. Besides, the affinity in [7] corresponds to a Ki of 8 µM. The kcat in data set [7] (saturating P2C and oxygen, sequential mechanism fit, pH 8.0, 25 °C) was 1.22 ± 0.04 s⁻¹; in data set [8] (saturating P2C and oxygen, ping-pong mechanism fit, pH 8.0, 25 °C), 0.50 ± 0.01 s⁻¹; in [10] it was 2.3 ± 0.2 s⁻¹. The results for the “turnover rate, fold slower than wild-type nikD” value in data set [7] (setting [17]) and in data set [8] (setting [17]) were “about 2 fold” and “about 5 fold”, respectively.

With `C[Se]CC(=O)O` [methylselenoacetate], the Kd is 1000 ± 30 µM in [1], 112 ± 3 µM in data set [2] and 1070 ± 40 µM in data set [3].

Consider `O=C(O)c1ccccn1` [picolinate], for which the Kd in data set [1] is 420 ± 20 µM; in data set [2] it was 151 ± 2 µM; in data set [3], 290 ± 40 µM; in data set [12] (read-out: Kd macroscopic (calc), calculated, equals k2/k1, pH 8.0, 25 °C) it was 280 ± 30 µM; in data set [13], 180 ± 30 µM. In addition, in data set [11], the k3 was determined as 192 ± 9 s⁻¹. The compound further registered a k4 in [11] of 27 ± 1 s⁻¹. In addition, the k1 in data set [12] (setting [18]) is given as 2.83 ± 0.04 × 10^4 M^-1 s^-1. Besides, in data set [12] (setting [18]), the k2 is 8.0 ± 0.7 s⁻¹.
